The target in data set [1] is T1, Recombinant human PI3Kγ (full length human PI3K p110γ) (Homo sapiens, UniProt P48736).
T1 construct: full length human PI3K p110γ fused with a His6-tag at the C-terminus; His6 (C); purchased ALEXIS BIOCHEMICALS #201-055-C010; host or cells: S. frugiperda 9 insect cells
In words: Kinase assay of PI3Kγ (solid-phase lipid kinase assay). The class given is biochemical. The text has this: [Determination of IC50 Values of Compounds in Kinase Assay of PI3Kγ]
Chemicals and Assay Materials
LABORATORIES (Toronto, Canada). Recombinant human PI3Kγ (full length human PI3K p110γ fused with a His6-tag at the C-terminus expressed in S. frugiperda 9 insect cells) was obtained from ALEXIS BIOCHEMICALS (#201-055-C010; San Diego, Calif.). […] BIOTECH (Buckinghamshire, UK) and ROCHE DIAGNOSTICS (Mannheim, Germany), respectively. Scintillation cocktails and MicroScint PS™ were purchased from PACKARD (Meriden, Conn.). Maxisorp™ plates were purchased from NALGE NUNC INTERNATIONAL K.K. (Tokyo, Japan). All other chemicals not further specified were from WAKO PURE CHEMICALS (Osaka, Japan).
Solid-Phase Lipid Kinase Assay
The plates were subsequently air-dried by incubation for at least 2 hours in a fume hood. The reaction was set up by mixing 25 μl/well of assay buffer 2× (100 mM MOPSO/NaOH, 0.2 M NaCl, pH 7.0, 8 mM MgCl2, 2 mg/ml BSA (fatty acid-free)) and 50 ng/well PI3Kγ in the lipid pre-coated plate and 10× test compounds were added in 2% DMSO. The reaction was started by adding 20 μl/well of ATP mix (final 10 μM ATP; 0.05 μCi/well [γ^33P]ATP). After incubation at RT for 2 hours, the reaction was terminated by adding 50 μl/well stop solution (50 mM EDTA, pH 8.0). The plate was then washed twice with Tris-buffered saline (TBS, pH 7.4). MicroScint PS™ (PACKARD) scintillation mix was added at 100 μl/well, and radioactivity was counted by using a TopCount™ (PACKARD) scintillation counter.
The inhibition percent at each concentration of compound was calculated, and IC50 values were determined from the inhibition of curve.

Where [2] appears, read: Table 1, isozyme not given, read-out: in vitro.
[3] abbreviates: in vitro PI3K-γ inhibitory activity, class symbols A-D, read-out: in vitro PI3K-gamma.

Where two headings read alike, the source gives them in different places.

T1 sequence (P48736 whole entry, the tested form may be a part): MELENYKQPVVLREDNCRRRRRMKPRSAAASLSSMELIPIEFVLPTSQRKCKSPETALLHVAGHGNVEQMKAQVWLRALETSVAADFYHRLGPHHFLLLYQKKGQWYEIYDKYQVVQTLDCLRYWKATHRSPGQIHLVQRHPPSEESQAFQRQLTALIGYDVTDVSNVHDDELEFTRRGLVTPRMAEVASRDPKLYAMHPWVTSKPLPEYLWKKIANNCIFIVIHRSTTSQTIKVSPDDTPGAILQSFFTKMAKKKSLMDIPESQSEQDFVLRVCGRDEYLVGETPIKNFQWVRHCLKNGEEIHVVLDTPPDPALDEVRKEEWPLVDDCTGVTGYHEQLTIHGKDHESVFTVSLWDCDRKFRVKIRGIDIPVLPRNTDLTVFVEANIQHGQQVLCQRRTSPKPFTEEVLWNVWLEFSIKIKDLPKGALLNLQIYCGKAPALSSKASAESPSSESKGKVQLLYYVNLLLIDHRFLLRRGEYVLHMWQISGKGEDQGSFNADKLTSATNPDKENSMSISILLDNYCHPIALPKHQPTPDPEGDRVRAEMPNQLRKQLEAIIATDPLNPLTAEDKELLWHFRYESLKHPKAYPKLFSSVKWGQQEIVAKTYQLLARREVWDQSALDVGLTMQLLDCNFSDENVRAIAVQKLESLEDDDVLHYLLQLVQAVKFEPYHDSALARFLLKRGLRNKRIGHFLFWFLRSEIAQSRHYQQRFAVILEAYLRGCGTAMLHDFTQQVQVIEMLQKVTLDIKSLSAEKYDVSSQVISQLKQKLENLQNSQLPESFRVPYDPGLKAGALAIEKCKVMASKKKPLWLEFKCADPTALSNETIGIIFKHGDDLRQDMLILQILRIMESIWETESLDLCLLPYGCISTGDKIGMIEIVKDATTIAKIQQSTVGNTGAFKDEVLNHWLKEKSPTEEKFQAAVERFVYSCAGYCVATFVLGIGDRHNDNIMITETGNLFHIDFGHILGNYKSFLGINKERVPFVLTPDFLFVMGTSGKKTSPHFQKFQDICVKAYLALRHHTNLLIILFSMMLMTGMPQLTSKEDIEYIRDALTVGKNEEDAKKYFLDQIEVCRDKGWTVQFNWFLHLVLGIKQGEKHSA

A word on the melting point: it is the temperature, or range, at which the solid turns liquid. The compound `COCOc1ccc2c(c1OC)N=C(/C=C(\O)c1cccnc1)N1CCN=C21` [Example 1-3, 2-[7-Methoxy-8-(methoxymethoxy)-2,3-dihydroimidazo[1,2-c]quinazolin-5-yl]-1-pyridin-3-ylethylenol] displayed a melting point of 215 to 216 °C. Further, in data set [1] (activity class of IC50, read-out: In vitro PI3K-γ inhibitory activity), the IC50 lay within 100 to 500 nM. With `COc1c(O)ccc2c1N=C(/C=C(\O)c1cccnc1)N1CCN=C21.Cl` [Example 1-9], the melting point was 245 °C (dec.). The IC50 in data set [1] (setting [2]) is below 100 nM. On the same counts, the results for `COc1ccc2c(c1OC)N=C(/C=C(\O)c1cccnc1)N1CCN=C21` [Example 1-10] are 269 to 270 °C and below 100 nM. On the same counts, the results for `COc1ccc2c(c1OC)N=C(/C=C(\O)c1ccc(NC(C)=O)nc1)N1CCN=C21` [Example 1-12] are 270 °C (dec.) and below 100 nM. On the same counts, the results for `CCOc1ccc2c(c1OC)N=C(/C=C(\O)c1cccnc1)N1CCN=C21` [Example 1-13] are 267 to 268 °C and below 100 nM. Turning to `COc1c(OC(C)C)ccc2c1N=C(/C=C(\O)c1cccnc1)N1CCN=C21` [Example 1-14], the melting point was 252 to 253 °C. The IC50 in data set [1] (setting [2]) was below 100 nM.

Regarding `COc1c(OCC2CC2)ccc2c1N=C(/C=C(\O)c1cccnc1)N1CCN=C21` [Example 1-15], the melting point was 254 °C (dec.). In addition, the IC50 in data set [1] (setting [2]) was 100 to 500 nM.

`COc1c(OCCO)ccc2c1N=C(/C=C(\O)c1cccnc1)N1CCN=C21` [Example 1-16] had a melting point of 264 to 265 °C. Moreover, the IC50 in data set [1] (setting [2]) was below 100 nM. On the same counts, the results for `COc1c(OCC(=O)OC(C)(C)C)ccc2c1N=C(/C=C(\O)c1cccnc1)N1CCN=C21` [Example 1-18] are 184 to 186 °C and 100 to 500 nM. Turning to `COc1c(OCCN(C)C)ccc2c1N=C(/C=C(\O)c1cccnc1)N1CCN=C21` [Example 1-19], the melting point lay in the range of 183 to 184 °C. The IC50 in data set [1] (setting [2]) lay within 100 to 500 nM. `COc1c(OCCN2CCCCC2)ccc2c1N=C(/C=C(\O)c1cccnc1)N1CCN=C21` [Example 1-20] gave a melting point of 162 to 163 °C. Besides, the IC50 in data set [1] (setting [2]) was 100 to 500 nM. The compound `COc1c(OCCN2CCCC2)ccc2c1N=C(/C=C(\O)c1cccnc1)N1CCN=C21` [Example 1-21] showed a melting point of 204 to 205 °C. For the same compound, the IC50 in data set [1] (setting [2]) was below 100 nM. On the same counts, the results for `COc1c(OCC(=O)O)ccc2c1N=C(/C=C(\O)c1cccnc1)N1CCN=C21.Cl` [Example 1-22] are 240 °C (dec.) and below 100 nM. On the same counts, the results for `COc1c(OCC(N)=O)ccc2c1N=C(/C=C(\O)c1cccnc1)N1CCN=C21` [Example 1-23] are 297 to 298 °C and below 100 nM.

`CNC(=O)COc1ccc2c(c1OC)N=C(/C=C(\O)c1cccnc1)N1CCN=C21.Cl` [Example 1-25]: the melting point was 240 °C (dec.). For the same compound, the IC50 in data set [1] (setting [2]) is below 100 nM. On the same counts, the results for `COc1c(OCC(=O)NC(C)C)ccc2c1N=C(/C=C(\O)c1cccnc1)N1CCN=C21.Cl` [Example 1-26] are 245 °C (dec.) and below 100 nM. On the same counts, the results for `COc1c(OCC(=O)N(C)C)ccc2c1N=C(/C=C(\O)c1cccnc1)N1CCN=C21` [Example 1-27] are 241 to 242 °C and below 100 nM. On the same counts, the results for `COc1c(OCC(=O)N2CCOCC2)ccc2c1N=C(/C=C(\O)c1cccnc1)N1CCN=C21` [Example 1-29] are 235 °C and below 100 nM. In turn, `COc1c(OCC(=O)NCc2ccc(F)cc2)ccc2c1N=C(/C=C(\O)c1cccnc1)N1CCN=C21.Cl` [Example 1-31] showed a melting point of 230 to 231 °C. Besides, the IC50 in data set [1] (setting [2]) was 100 to 500 nM. In turn, `COc1c(C)ccc2c1N=C(/C=C(\O)c1ccc(NC(C)=O)nc1)N1CCN=C21.Cl` [Example 1-33] came in with a melting point of 273 °C. The IC50 in data set [1] (setting [2]) is below 100 nM. On the same counts, the results for `COc1c(C)ccc2c1N=C(/C=C(\O)c1ccc3[nH]cnc3c1)N1CCN=C21` [Example 1-34] are above 285 °C and below 100 nM. In turn, `COc1ccc2c(c1OCCN1CCOCC1)N=C(/C=C(\O)c1cccnc1)N1CCN=C21` [Example 1-36] had a melting point of 197 °C. Besides, in data set [1] (setting [2]), the IC50 is below 100 nM. On the same counts, the results for `COc1ccc2c(c1OCCN1CCOCC1)N=C(/C=C(\O)c1ccc(NC(C)=O)nc1)N1CCN=C21.Cl` [Example 1-38] are 260 °C and below 100 nM.

As to `Cc1ccc2c(c1OCCN1CCOCC1)N=C(/C=C(\O)c1cccnc1)N1CCN=C21` [Example 1-39], the melting point came to 217 °C. The IC50 in data set [1] (setting [2]) lay within 100 to 500 nM.

Turning to `CC(=O)Nc1ccc(/C(O)=C/C2=Nc3c(ccc(C)c3OCCN3CCOCC3)C3=NCCN23)cn1.Cl` [Example 1-41], the melting point stood at 271 °C. Also, the IC50 in data set [1] (setting [2]) is below 100 nM. On the same counts, the results for `COc1cc(OC)c2c(c1)C1=NCCN1C(/C=C(\O)c1cccnc1)=N2` [Example 1-42] are 218 °C and below 100 nM. `CC(=O)Nc1ccc(/C(O)=C/C2=Nc3c(C)cc(Br)cc3C3=NCCN23)cn1.Cl` [Example 1-44] registered a melting point above 290 °C. Further, in data set [1] (setting [2]), the IC50 is 100 to 500 nM. On the same counts, the results for `Cc1cc(Br)c2c(c1)C1=NCCN1C(/C=C(\O)c1cccnc1)=N2.Cl` [Example 1-45] are above 290 °C and 100 to 500 nM. Compound `CC(=O)Nc1ccc(/C(O)=C/C2=Nc3c(Br)cc(C)cc3C3=NCCN23)cn1.Cl` [Example 1-46] returned a melting point above 285 °C. The IC50 in data set [1] (setting [2]) was below 100 nM. For the compound `Cc1cc(Br)c2c(c1)C1=NCCN1C(/C=C(\O)c1ccc3[nH]cnc3c1)=N2` [Example 1-47], the melting point is above 285 °C. In data set [1] (setting [2]), the IC50 is 100 to 500 nM. On the same counts, the results for `COc1cc2c(cc1OC)C1=NCCN1C(/C=C(\O)c1ccc(C)nc1)=N2` [Example 1-49] are 200 to 204 °C and below 100 nM.

`COc1cc2c(cc1OC)C1=NCCN1C(/C=C(\O)c1ccc(C)nc1)=N2.Cl` [Example 1-50]: the melting point is 260 °C (dec.). Also, in data set [1] (setting [2]), the IC50 was in the range of 100 to 500 nM. On the same counts, the results for `COc1cc2c(cc1OC)C1=NCCN1C(/C=C(\O)c1ccc(NC(C)=O)nc1)=N2.Cl` [Example 1-51] are 275 to 280 °C and 100 to 500 nM. On the same counts, the results for `CNc1ccc(/C(O)=C/C2=Nc3cc(OC)c(OC)cc3C3=NCCN23)cn1` [Example 1-52] are 321 to 325 °C and 100 to 500 nM. As to `CCNc1ccc(/C(O)=C/C2=Nc3cc(OC)c(OC)cc3C3=NCCN23)cn1` [Example 1-53], the IC50 in data set [1] (setting [2]) fell in the range of 100 to 500 nM. `COc1cc2c(cc1OC)C1=NCCN1C(/C=C(\O)c1ccc(NCCO)nc1)=N2` [Example 1-54] registered a melting point of 207 °C. Further, in data set [1] (setting [2]), the IC50 fell in the range of 100 to 500 nM. Compound `COc1cc2c(cc1OC)C1=NCCN1C(/C=C(\O)c1ccc(Cl)nc1)=N2` [Example 1-55] had a melting point of 283 °C. In addition, the IC50 in data set [1] (setting [2]) was in the range of 100 to 500 nM. On the same counts, the results for `COc1cc2c(cc1OC)C1=NCCN1C(/C=C(\O)c1ccc3[nH]cnc3c1)=N2.Cl` [Example 1-57] are 240 °C (dec.) and below 100 nM. On the same counts, the results for `COc1cc2c(cc1OC)C1=NCCN1C(/C=C(\O)c1cccs1)=N2` [Example 1-58] are 250 °C and 100 to 500 nM. As to `COc1cc2c(cc1OC)C1=NCCN1C(/C=C(\O)c1sc(C)nc1C)=N2` [Example 1-60], the melting point came to 292 °C. Besides, in data set [1] (setting [2]), the IC50 is below 100 nM.

Regarding `O/C(=C\C1=Nc2cc(C(F)(F)F)ccc2C2=NCCN12)c1cccnc1` [Example 1-188], the IC50 in data set [1] (setting [2]) was 500 to 2000 nM. On to `COc1cc2c(cc1OC)C1=NCCN1C(NC(=O)c1cccnc1)=N2` [Example 2-53], for which the IC50 in data set [1] (in vitro PI3K-γ inhibitory activity, class symbols, read-out: in vitro PI3K-gamma) is 100 to 500 nM.

With `CCC(=O)NC1=Nc2ccccc2C2=NCCN12` [Example 2-327], in data set [1] (setting [3]), the IC50 is above 2000 nM. Still for that read-out and setting: under `CC(C)(C)OC(=O)N1CCCCC1C(=O)NC1=Nc2ccccc2C2=NCCN12` (stereo not shown) [Example 2-336] stands above 2000 nM; under `CC(C)(C)OC(=O)N1CCC(C(=O)NC2=Nc3ccccc3C3=NCCN23)CC1` [Example 2-340], above 2000 nM; under `COc1cc2c(cc1OC)C1=NCCN1C(NC(=O)c1ccccc1)=N2` [Example 2-342], 500 to 2000 nM.
